According to patent publication US20070089183A1, “Size and/or growth engineering by modulation of the interaction between calmodulin, and brassinosteroid biosynthetic enzymes and orthologs therof” (Washington State University, priority 2005, published 2007):
Where no end group is shown, it is not given here.

Tests used:
[1] = test system: cM1, cM2, cM3 and the dwf1 mutant; assay: exogenous application of brassinolide to dwarf plants; format: in vivo, Arabidopsis; conditions: data not shown
Description: To ensure a reliable comparison of the complementary effects of normal DWF1 and the three mutants, T2 plants with similar expression levels were compared (FIG. 3b-d). […] Seeds were produced in most of the slightly shorter siliques of cM1 plants (FIG. 3b, c). […] The dwarf phenotypes of cM1, cM2, cM3 and the dwf1 mutant were rescued by exogenous application of brassinolide (data not shown).

DWF4 null mutant = assay: complementation of DWF4 null mutant or overexpression, plant growth; format: in vivo, Arabidopsis
Description: For example, partial dwarf Arabidopsis plants were generated through manipulation of the DWF4 CaMBD regulatory domain.

## CC(C)[C@H](C)[C@@H](O)[C@H](O)[C@@H](C)[C@H]1CC[C@H]2[C@@H]3COC(=O)[C@H]4C[C@H](O)[C@H](O)C[C@]4(C)[C@H]3CC[C@]12C [brassinolide]
[1]
  rescue of dwarf phenotypes: rescued

## DWF4 mutant having a L to D change at amino acid 21: DWF4 with L to D change at aa 21 within the N-terminal CaMBD (PSLLSDLLFLILLKRRNRKTRFNLP; not fully specified; listed as Arabidopsis thaliana)
DWF4 null mutant; complementing a DWF4 null mutant
  plant growth phenotype: semi-dwarf

## mutant having a L to V change at amino acid 28: DWF4 with L to V change at aa 28 within the N-terminal CaMBD (PSLLSLLLFLILVKRRNRKTRFNLP; listed as Arabidopsis thaliana)
DWF4 null mutant; overexpression
  plant growth phenotype: enhanced growth
